From patent US5081131A, “Omega-((hetero)alkyl)benz(cd)-indol-2-amines” (American Cyanamid Company, priority 1988, dated 1992)

System: spontaneously hypertensive rats
Assay: Hypotensive activity in spontaneously hypertensive rats (MABP)
Type: in vivo, rat (Okamoto strain)
Conditions: SHR, gavage, two doses of 10 mg/kg or less 24 h apart, MABP at 28 h; average baseline 160±1.5 mm Hg
Method: The novel compounds of the present invention are active hypotensive agents and were tested for hypotensive activity by the method of P. S. Chan and D. Poorvin, Clinical and Experimental Hypertension, 1 (6), 817-830 (1979). Male, 16 week old, spontaneously hypertensive rats of the Okamoto strain, from Taconic Farms, Germantown, N.Y., having an average mean arterial blood pressure of 160±1.5 mm of mercury, were used in the test. One to 4 rats were used per test compound. A rat was dosed by gavage with a test compound, suspended in 2% pre-boiled starch at a concentration of 50 mg/ml, at a doses of 10 mg/kg of body weight or less, with 0.9% sodium chloride loading at a dose of 25 ml/kg of body weight. A second identical dose of the test compound, without sodium chloride loading was given 24 hours later. At 28 hours after initial dose the mean arterial blood pressure (MABP) was measured. The procedure was repeated in a second and third rat when necessary.

Row | Compound | Avg. MABP in mm Hg (No. of Rats) [mm Hg]
1 | O=C(Nc1ccccc1)N(CCCn1ccnc1)C1=Nc2cccc3cccc1c23 [N-Benz(cd)indol-2-yl-N-(3-(1H-imidazol-1-yl)propyl)-N'-phenylurea] | 145
2 | Cc1csc(CCCNC2=Nc3cccc4cccc2c34)n1.O=C(O)/C=C/C(=O)O [N-(3-(4-Methyl-2-thiazolyl)propyl)benz(cd)indol-2-amine fumarate] | 122
3 | c1cc2c3c(cccc3c1)C(NCCCCCCCn1ccnc1)=N2 [N-(7-(1H-imidazol-1-yl)heptyl)benz(cd)indol-2-amine] | 127
4 | O=C(c1ccccc1Cl)N(CCCCn1ccnc1)C1=Nc2cccc3cccc1c23 [N-Benz(cd)indol-2-yl-2-chloro-N-(4-(1-imidazol-1-yl)butyl)benzamide] | 80
5 | C(=C/Cn1ccnc1)/CNC1=Nc2cccc3cccc1c23.O=C(O)/C=C/C(=O)O [(Z)-N-(4-(1H-imidazol-1-yl)-2-butenyl)benz(cd)indol-2-amine, fumarate] | 102
6 | CC(=O)N(CCCn1cncn1)C1=Nc2cccc3cccc1c23 [N-Benz(cd)indol-2-yl-N-(3-(1H-1,2,4-triazol-1-yl)propyl)acetamide] | 118
7 | Fc1ccc2c3c(cccc13)C(NCCCn1ccnc1)=N2 [6-Fluoro-N-(3-(1H-imidazol-1-yl)propyl)benz(cd)indol-2-amine] | 94
8 | Cc1cn(CCCNC2=Nc3cccc4cccc2c34)cn1.Cl.Cl [N-(3-(4-methyl-1H-imidazol-1-yl)propyl)benz(cd)indol-2-amine, dihydrochloride] | 106
9 | c1cncc(CCCCNC2=Nc3cccc4cccc2c34)c1 [N-(4-(3-Pyridinyl)butyl)benz(cd)indol-2-amine sesqui-fumarate] | 95
10 | O=C(c1cccc(C(F)(F)F)c1)N(CCCCc1cccnc1)C1=Nc2cccc3cccc1c23 [N-Benz(cd)indol-2-yl-N-(4-(3-pyridinyl)butyl)-3-trifluoromethylbenzamide] | 115
11 | CC(=O)N(CCCn1ccnc1)C1=Nc2cccc3cccc1c23 [N-Benz(cd)indol-2-yl-N-(3-(1H-imidazol-1-yl)propyl)acetamide] | 102
12 | Clc1ccc(C(Cn2cncn2)NC2=Nc3cccc4cccc2c34)cc1.O=C(O)/C=C/C(=O)O (centres unmarked) [N-(1-(4-Chlorophenyl)-2-(1H-1,2,4-triazol-1-yl)ethyl)benz(cd)indol-2-amine fumarate] | 142
13 | O=C(O)/C=C/C(=O)O.c1cc2c3c(cccc3c1)C(NCCOCCn1ccnc1)=N2 [N-(2-(2-(1H-imidazol-1-yl)ethoxy)ethyl)benz(cd)indol-2-amine, fumarate] | 108
14 | CC(CCNC1=Nc2c(Cl)cc(Cl)c3cccc1c23)n1ccnc1.Cl.Cl (centres unmarked) [6,8-Dichloro-N-(3-(1H-imidazol-1-yl)butyl)benz(cd)indol-2-amine dihydrochloride] | 134
15 | C(=Cc1cccnc1)CCCNC1=Nc2cccc3cccc1c23 [N-(5-(3-Pyridinyl)-4-pentenyl)benz(cd)indol-2-amine sesqui-fumarate] | 140
16 | Cl.Cl.Clc1cc(Cl)c2cccc3c2c1N=C3NCCCCCCCn1ccnc1 [6,8-Dichloro-N-(7-(1H-imidazol-1-yl)heptyl)benz(cd)indol-2-amine dihydrochloride] | 130
17 | O=C(O)/C=C/C(=O)O.c1cc2c3c(cccc3c1)C(NCCCn1cccn1)=N2 [N-(3-(1H-Pyrazol-1-yl)propyl)benz(cd)indol-2-amine fumarate] | 141
18 | Cc1ccc(C(=O)N(CCCCn2ccnc2)C2=Nc3cccc4cccc2c34)cc1 [N-(Benz(cd)indol-2-yl)-N-(4-(1H-imidazol-1-yl)butyl)-4-methylbenzamide] | 82
19 | O=C(O)/C=C/C(=O)O.c1cc2c3c(cccc3c1)C(NCCn1ccnc1)=N2 [N-(2-(1H-imidazol-1-yl)ethyl)benz(cd)indol-2-amine, fumarate] | 97
20 | CCC(CC)(CNC1=Nc2cccc3cccc1c23)Cn1ccnc1 [N-(2-Ethyl-2-(1H-imidazol-1-yl)methyl)butylbenz(cd)indol-2-amine sesqui-fumarate] | 112
21 | O=C(c1ccc(Cl)c(Cl)c1)N(CCCCn1ccnc1)C1=Nc2cccc3cccc1c23 [N-Benz(cd)indol-2-yl-3,4-dichloro-N-(4-(1H-imidazol-1-yl)butyl)benzamide] | 96

Row | Compound | Avg. MABP in mm Hg (No. of Rats) [mm Hg]
22 | CC(CNC1=Nc2ccc(Br)c3cccc1c23)Cn1ccnc1.Cl.Cl (centres unmarked) [6-Bromo-N-(3-(1H-imidazol-1-yl)-2-methylpropyl)benz(cd)indol-2-amine, dihydrochloride] | 107
23 | CCCCCC(=O)N(CCCCn1ccnc1)C1=Nc2cccc3cccc1c23 [N-Benz(cd)indol-2-yl-N-(4-(1H-imidazol-1-yl)butyl)hexanamide] | 102
24 | O=C(O)/C=C/C(=O)O.c1ccc(CSCCNC2=Nc3cccc4cccc2c34)nc1 [N-(2-((2-pyridinylmethyl)thio)ethyl)benz(cd)indol-2-amine fumarate] | 143
25 | c1cc2c3c(cccc3c1)C(NCCCCn1ccnc1)=N2 [N-(4-(1H-imidazol-1-yl)butyl)benz(cd)indol-2-amine, hydriodide] | 74
26 | O=C(c1cccs1)N(CCCCn1ccnc1)C1=Nc2cccc3cccc1c23 [N-Benz(cd)indol-2-yl-N-(4-(1H-imidazol-1-yl)butyl)-2-thiophenecarboxamide] | 86
27 | c1cc2c3c(cccc3c1)C(NOCCCCn1ccnc1)=N2 [N-(4-(1H-imidazol-1-yl)butoxy)benz(cd)indol-2-amine] | 111
28 | CC(CNC1=Nc2c(Cl)cc(Cl)c3cccc1c23)Cn1ccnc1 (centres unmarked) [6,8-Dichloro-N-(3-(1H-imidazol-1-yl)-2-methylpropyl)benz(cd)indol-2-amine sesqui-furamate] | 116
29 | O=C(O)/C=C/C(=O)O.O=C(O)/C=C/C(=O)O.OC(CNC1=Nc2cccc3cccc1c23)Cn1ccnc1 (centres unmarked) [N-(3-(1H-imidazol-1-yl)-2-hydroxypropyl)benz(cd)indol-2-amine bis-fumarate] | 132
30 | O=C(c1ccc(F)cc1)N(CCCCn1ccnc1)C1=Nc2cccc3cccc1c23 [N-Benz(cd)indol-2-yl-N-(4-(1H-imidazol-1-yl)butyl)-4-fluorobenzamide] | 85
31 | CCCCCCC(=O)N(CCCCn1ccnc1)C1=Nc2cccc3cccc1c23 [N-Benz(cd)indol-2-yl-N-(4-(1H-imidazol-1-yl)butyl)heptanamide] | 76
32 | Clc1ccc2c3c(cccc13)C(NCCCn1ccnc1)=N2 [6-Chloro-N-(3-(1H-imidazol-l-yl)propyl)benz(cd)indol-2-amine] | 124
33 | CCC(=O)N(CCCCn1ccnc1)C1=Nc2cccc3cccc1c23 [N-Benz(cd)indol-2-yl-N-(4-(1H-imidazol-1-yl)butyl)propanamide] | 83
34 | CCCCC(=O)N(CCCCn1ccnc1)C1=Nc2cccc3cccc1c23 [N-Benz(cd)indol-2-yl-N-(4-(1H-imidazol-1-yl)butyl)pentanamide] | 84
35 | C[N+]1=C(NCCCCn2cc[n+](C)c2)c2cccc3cccc1c23.[I-].[I-] [N-(4-(1H-imidazol-1-yl)butyl)benz(cd)indol-2-amine dimethiodide] | 110
36 | CN(CCCn1ccnc1)C1=Nc2cccc3cccc1c23 [N-(3-1H-imidazol-1-yl)propyl)-N-methylbenz(cd)indol-2-amine] | 95
37 | O=C(c1cccc(C(F)(F)F)c1)N(CCCCn1ccnc1)C1=Nc2cccc3cccc1c23 [N-Benz(cd)indol-2-yl-N-(4-(1H-imidazol 1-yl)butyl)-3-trifluoromethylbenzamide] | 77
38 | Cl.Cl.c1cc2c3c(cccc3c1)C(NCCCCCCCCCCn1ccnc1)=N2 [N-(10-(1H-imidazol-1-yl)decyl)benz(cd)indol-2-amine, dihydrochloride] | 124
39 | O=C(O)/C=C/C(=O)O.O=C(O)/C=C/C(=O)O.c1cc2c3c(cccc3c1)C(NCCCn1ccnc1)=N2 [N-(3-(1H-imidazol-1-yl)propyl)benz(cd)indol-2-amine, bis-fumarate] | 81
40 | O=C(c1ccccc1)N(CCCCn1ccnc1)C1=Nc2cccc3cccc1c23 [N-Benz(cd)indol-2-yl-N-(4-(1H-imidazol-1-yl)butyl)benzamide] | 80
41 | O=C(c1ccco1)N(CCCCn1ccnc1)C1=Nc2cccc3cccc1c23 [N-(Benz(cd)indol-2-yl)-N-(4-(1H-imidazol-1-yl)butyl)-2-furancarboxamide] | 96
